Laboratory results taken from patent US20030180399A1, “Therapeutic/edible compositions comprising herbal ingredients and methods for treating hyperglycemia” (COUNCIL OF SCIENTIFIC & INDUSTRIAL RESEARCH, priority 2002, published 2003).

What was measured:
[1] = test system: oral glucose tolerance in rats; assay: Glucose Tolerance Test (GTT) in rats; format: in vivo, Male albino rats of wistar strains; conditions: rats loaded with glucose 5 g/kg 2 hours after dosing; P<0.05; glibenclamide 3 mg/Kg
Description: Brief description of the accompanying drawings: Figure-1. Describes the effect of herbal formulation and glibenclamide on oral glucose tolerance tests in rats. From the above STZ induced diabetic model the composition 1 has chosen for GTT study. Male albino rats of wistar strains (150-200 g) were used. They were divided into three groups each containing 6 rats. They were randomly assigned A) control group B) standard group (glibenclamide) C) test group. Group A was given saline, group B was given glibenclamide (3 mg/Kg) and group C was given test compositions. After 2 hours all rats were loaded with glucose with a dose of 5 g/kg. Blood samples were taken from tail vein of conscious rats for every 30 minutes up to 3 hours. Plasma glucose estimations were done by glucose oxidase method by using Auto Blood Analyzer as described in FIG. 1. The statistical analysis was performed using Prism program (Graphpad software). Annova with post Newman—Keul test with P values was used to compare the treatment efficacy between the test groups.

[2] = test system: STZ induced diabetic model; assay: Plasma glucose level in streptozocin (STZ) induced diabetic rats, 15 days treatment; format: in vivo, Male albino rats of wistar strains; conditions: n=6, glibenclamide 3 mg/Kg
Experimental: Male albino rats of wistar strains (150-200 g) were used throughout the studies. Rats were divided into eleven groups of each containing 6 rats. These animals were randomly assigned to the following groups which include (A) control group, (B) standard group (glibenclamide, 3 mg/Kg) and (C) test groups (F1-F9). Diabetes was induced by injecting streptozocin (STZ) in a dose of 65 mg/kg intra venous in 0.1M citrate buffer. Rats were kept fasted overnight but were given water ad libitum. After 48 hours of STZ injection, blood samples were taken from tail vein of conscious rats. The blood was centrifuged at 5000 rpm for 10 minutes in an eppendorf tubes containing EDTA (1 mg/ml of blood). Plasma glucose estimations were done by glucose oxidase method by using Auto blood analyzer (Techinicon RA-100, Bayer Diagnostics, Ireland). Animals with blood glucose level more than 250% of the fasting level were considered to be diabetic and were used for the experiment. Group A was given normal saline, group B was given glibenclamide and various groups of C were given herbal compositions for 15 days at least once in day. Blood was collected from tail veins of all the rats after 7 days and 15 days of treatment and glucose levels were estimated as described previously (Table 2). The statistical analysis was performed using Prism program (Graphpad software). […]

## COc1ccc(Cl)cc1C(=O)NCCc1ccc(S(=O)(=O)NC(=O)NC2CCCCC2)cc1 [Glibenclamide]
[1]
  glucose tolerance compared to control group: increased
[2]; Day 7th of treatment
  % reduction in glucose levels: 27 ± 2.6%
[2]; Day 15th of treatment
  % reduction in glucose levels: 38 ± 2.9%
